Experimental data taken from ChEMBL document CHEMBL5465560, “Selectivity Literature for EUbOPEN Chemogenomic Library” (2024).

How the values were obtained:
[1] = system: Proto-oncogene tyrosine-protein kinase receptor Ret (Homo sapiens), P07949 [V804L]; experiment: (§1) Selectivity interaction (KinomeScan (DiscoverX)) EUB0001049a RET; details: at 1 µM
[2] = system: Proto-oncogene tyrosine-protein kinase receptor Ret (Homo sapiens), P07949 [M918T]; experiment: as §1; details: at 1 µM
[3] = system: Proto-oncogene tyrosine-protein kinase receptor Ret (Homo sapiens), P07949 [V804M]; experiment: as §1; details: at 1 µM
[4] = target: Proto-oncogene tyrosine-protein kinase receptor Ret (Homo sapiens, UniProt P07949); experiment: as §1; details: at 1 µM
[5] = target: T1, Serine/threonine-protein kinase Sgk1 (Homo sapiens) (UniProt O00141); experiment: Selectivity interaction (ActivX KiNativ screen (kinase selectivity in THP-1 cell lysates)) EUB0000639a SGK1; format: subcellular; details: lysate
T1 sequence (whole entry): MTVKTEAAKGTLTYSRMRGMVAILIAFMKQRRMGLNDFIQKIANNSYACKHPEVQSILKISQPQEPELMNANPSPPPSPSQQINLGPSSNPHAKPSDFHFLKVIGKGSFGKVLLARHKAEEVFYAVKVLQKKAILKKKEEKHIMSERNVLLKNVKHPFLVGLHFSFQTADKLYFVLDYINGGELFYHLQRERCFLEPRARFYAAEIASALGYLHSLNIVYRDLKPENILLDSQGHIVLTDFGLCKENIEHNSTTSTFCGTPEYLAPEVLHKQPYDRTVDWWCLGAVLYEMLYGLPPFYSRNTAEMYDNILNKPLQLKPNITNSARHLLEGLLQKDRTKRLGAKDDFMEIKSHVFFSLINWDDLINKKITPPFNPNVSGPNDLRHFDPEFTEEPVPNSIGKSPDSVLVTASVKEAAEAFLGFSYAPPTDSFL

[6] = target: RAC-alpha serine/threonine-protein kinase (Homo sapiens, UniProt P31749); experiment: Selectivity interaction (Rxn Biology Kinase assay) EUB0001632a AKT1; details: at 10 µM
[7] = target: Serine/threonine-protein kinase mTOR (Homo sapiens, UniProt P42345); experiment: Selectivity interaction (KinomeScan (DiscoverX)) EUB0000695a MTOR; details: at 100 nM
[8] = target: Serine/threonine-protein kinase 32A (Homo sapiens) (UniProt Q8WU08); experiment: Selectivity interaction (KinomeScan (DiscoverX)) EUB0000695a STK32A; details: at 100 nM
[9] = target: Adenosine receptor A1 (Homo sapiens) (UniProt P30542); experiment: Selectivity interaction (Eurofins CEREP Diversity Profile (receptors and ion channels)) EUB0000279b ADORA1; details: at 10 µM
[10] = target: Tyrosine-protein kinase Blk (Homo sapiens) (UniProt P51451); details: at 10 µM
[11] = target: Cyclin-dependent kinase 1/cyclin B (Homo sapiens) (UniProt P06493+P14635+Q8WWL7+O95067); experiment: Selectivity interaction (Upstate Kinase Profiler service (Millipore)) EUB0000056c CDK1; format: protein-complex assay; details: at 1 µM
[12] = target: Serine/threonine-protein kinase 35 (Homo sapiens) (UniProt Q8TDR2); experiment: Selectivity interaction (KinomeScan (DiscoverX)) EUB0000045b STK35
[13] = target: T2, Atypical kinase COQ8B, mitochondrial (Homo sapiens) (UniProt Q96D53); experiment: Selectivity interaction (KinomeScan (DiscoverX)) EUB0000655a ADCK4; details: at 10 µM
T2 sequence (whole entry): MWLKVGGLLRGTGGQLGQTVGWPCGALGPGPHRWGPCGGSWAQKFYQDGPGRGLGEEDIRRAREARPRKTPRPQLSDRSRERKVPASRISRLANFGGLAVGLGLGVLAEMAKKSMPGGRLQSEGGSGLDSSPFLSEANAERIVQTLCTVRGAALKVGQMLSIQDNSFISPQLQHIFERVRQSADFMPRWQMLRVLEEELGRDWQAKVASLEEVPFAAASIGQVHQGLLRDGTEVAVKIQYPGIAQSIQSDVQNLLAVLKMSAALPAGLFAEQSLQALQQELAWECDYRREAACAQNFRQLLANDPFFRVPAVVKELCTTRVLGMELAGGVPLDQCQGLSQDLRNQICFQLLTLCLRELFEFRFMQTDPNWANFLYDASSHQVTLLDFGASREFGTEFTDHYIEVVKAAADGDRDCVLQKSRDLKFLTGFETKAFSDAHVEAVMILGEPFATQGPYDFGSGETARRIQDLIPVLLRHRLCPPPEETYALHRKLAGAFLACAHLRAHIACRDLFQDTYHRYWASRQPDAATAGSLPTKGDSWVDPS

[14] = target: T3, Muscle, skeletal receptor tyrosine-protein kinase (Homo sapiens) (UniProt O15146); experiment: Selectivity interaction (KinomeScan (DiscoverX)) EUB0000607a MUSK; details: at 10 µM
T3 sequence (whole entry): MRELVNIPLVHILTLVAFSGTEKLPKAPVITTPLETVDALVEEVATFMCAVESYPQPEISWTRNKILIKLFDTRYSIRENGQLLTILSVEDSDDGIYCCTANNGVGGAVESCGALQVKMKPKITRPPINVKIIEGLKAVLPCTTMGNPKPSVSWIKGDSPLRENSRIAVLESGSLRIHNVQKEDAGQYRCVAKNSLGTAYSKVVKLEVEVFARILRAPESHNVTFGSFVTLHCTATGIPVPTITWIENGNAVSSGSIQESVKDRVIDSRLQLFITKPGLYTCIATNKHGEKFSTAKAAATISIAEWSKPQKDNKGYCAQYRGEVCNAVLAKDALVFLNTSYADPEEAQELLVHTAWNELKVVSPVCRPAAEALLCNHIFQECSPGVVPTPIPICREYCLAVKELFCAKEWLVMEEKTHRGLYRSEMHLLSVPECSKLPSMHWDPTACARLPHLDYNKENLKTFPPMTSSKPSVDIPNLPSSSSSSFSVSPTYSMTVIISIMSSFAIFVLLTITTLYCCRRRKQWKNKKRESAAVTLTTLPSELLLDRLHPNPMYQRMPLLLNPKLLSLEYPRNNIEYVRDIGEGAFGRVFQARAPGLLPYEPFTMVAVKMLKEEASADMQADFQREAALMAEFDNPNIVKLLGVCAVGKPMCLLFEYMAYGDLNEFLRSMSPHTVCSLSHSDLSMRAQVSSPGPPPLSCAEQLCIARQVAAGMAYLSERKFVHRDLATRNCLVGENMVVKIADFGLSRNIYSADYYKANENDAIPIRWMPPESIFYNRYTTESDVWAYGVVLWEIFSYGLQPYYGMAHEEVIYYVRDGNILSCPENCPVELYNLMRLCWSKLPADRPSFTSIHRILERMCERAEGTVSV

[15] = target: STE20-like serine/threonine-protein kinase (Homo sapiens, UniProt Q9H2G2); experiment: Selectivity interaction (Kinase panel (KiNativ target engagement assay in Jurkat cells)) EUB0001635a SLK; format: cell-based; details: Selectivity number of off-targets 0.0, Selectivity number of targets 233.0, Source Knowledge https://www.sciencedirect.com/science/article/pii/S2451945619300674?via%3Dihub, at 1 µM
Sequence of STE20-like serine/threonine-protein kinase (Q9H2G2 whole entry, looked up): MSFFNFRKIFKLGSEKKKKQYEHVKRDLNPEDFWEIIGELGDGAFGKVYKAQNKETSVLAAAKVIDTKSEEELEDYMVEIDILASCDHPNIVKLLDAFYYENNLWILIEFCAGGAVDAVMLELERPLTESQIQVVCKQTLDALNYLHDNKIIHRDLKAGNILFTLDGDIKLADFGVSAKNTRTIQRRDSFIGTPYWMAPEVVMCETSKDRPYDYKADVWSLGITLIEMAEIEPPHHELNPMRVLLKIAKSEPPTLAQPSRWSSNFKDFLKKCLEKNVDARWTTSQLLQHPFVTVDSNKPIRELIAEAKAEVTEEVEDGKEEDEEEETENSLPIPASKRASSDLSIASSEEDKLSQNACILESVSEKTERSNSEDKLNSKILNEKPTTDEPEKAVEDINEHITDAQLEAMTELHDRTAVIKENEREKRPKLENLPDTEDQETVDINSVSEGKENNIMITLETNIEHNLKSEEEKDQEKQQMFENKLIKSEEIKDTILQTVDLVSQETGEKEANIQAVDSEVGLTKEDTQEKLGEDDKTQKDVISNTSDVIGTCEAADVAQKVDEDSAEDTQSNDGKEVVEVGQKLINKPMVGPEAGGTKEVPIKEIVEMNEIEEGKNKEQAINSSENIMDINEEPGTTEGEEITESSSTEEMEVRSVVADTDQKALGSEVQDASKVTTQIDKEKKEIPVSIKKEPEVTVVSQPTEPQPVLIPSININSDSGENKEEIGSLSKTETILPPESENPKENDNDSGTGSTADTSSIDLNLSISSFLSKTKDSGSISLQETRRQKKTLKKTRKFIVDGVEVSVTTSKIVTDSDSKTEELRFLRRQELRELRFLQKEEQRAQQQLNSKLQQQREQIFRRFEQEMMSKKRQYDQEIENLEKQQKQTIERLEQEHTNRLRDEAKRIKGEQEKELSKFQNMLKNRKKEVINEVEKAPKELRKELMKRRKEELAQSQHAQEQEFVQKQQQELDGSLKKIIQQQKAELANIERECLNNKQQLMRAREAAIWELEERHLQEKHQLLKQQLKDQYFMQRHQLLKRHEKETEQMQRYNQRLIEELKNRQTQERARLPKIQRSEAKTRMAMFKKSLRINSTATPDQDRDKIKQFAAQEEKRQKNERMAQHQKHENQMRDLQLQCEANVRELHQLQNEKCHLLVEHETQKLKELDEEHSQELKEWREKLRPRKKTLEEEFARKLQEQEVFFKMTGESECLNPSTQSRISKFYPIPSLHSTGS

Sequence of Serine/threonine-protein kinase 35 (Homo sapiens) (Q8TDR2 whole entry): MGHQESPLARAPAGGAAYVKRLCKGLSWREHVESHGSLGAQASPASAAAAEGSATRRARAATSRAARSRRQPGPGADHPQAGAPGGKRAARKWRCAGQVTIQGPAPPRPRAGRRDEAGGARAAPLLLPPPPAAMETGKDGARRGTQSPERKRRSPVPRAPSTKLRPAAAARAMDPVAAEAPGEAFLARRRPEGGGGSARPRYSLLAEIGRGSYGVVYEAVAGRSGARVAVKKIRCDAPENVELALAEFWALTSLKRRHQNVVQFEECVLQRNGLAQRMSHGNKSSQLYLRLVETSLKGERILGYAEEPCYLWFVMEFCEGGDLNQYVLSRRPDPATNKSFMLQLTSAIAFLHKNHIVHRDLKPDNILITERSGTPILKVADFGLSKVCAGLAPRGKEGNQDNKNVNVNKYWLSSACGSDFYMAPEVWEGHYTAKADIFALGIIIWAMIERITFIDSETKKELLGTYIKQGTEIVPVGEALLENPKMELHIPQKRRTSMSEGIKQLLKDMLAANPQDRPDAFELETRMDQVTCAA
Sequence of Serine/threonine-protein kinase 32A (Homo sapiens) (Q8WU08 whole entry): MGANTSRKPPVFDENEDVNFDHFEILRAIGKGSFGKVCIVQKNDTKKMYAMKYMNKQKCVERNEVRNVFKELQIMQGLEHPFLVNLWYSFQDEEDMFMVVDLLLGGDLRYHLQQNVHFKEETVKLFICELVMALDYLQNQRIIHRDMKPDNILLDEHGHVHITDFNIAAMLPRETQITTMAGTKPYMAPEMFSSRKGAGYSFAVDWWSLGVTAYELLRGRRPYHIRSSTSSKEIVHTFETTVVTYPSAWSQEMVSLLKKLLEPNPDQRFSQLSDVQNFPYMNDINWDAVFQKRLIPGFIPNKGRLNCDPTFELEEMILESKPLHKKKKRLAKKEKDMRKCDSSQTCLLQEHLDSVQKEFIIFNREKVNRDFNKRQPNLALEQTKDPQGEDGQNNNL
Sequence of Tyrosine-protein kinase Blk (Homo sapiens) (P51451 2-505 limits assumed): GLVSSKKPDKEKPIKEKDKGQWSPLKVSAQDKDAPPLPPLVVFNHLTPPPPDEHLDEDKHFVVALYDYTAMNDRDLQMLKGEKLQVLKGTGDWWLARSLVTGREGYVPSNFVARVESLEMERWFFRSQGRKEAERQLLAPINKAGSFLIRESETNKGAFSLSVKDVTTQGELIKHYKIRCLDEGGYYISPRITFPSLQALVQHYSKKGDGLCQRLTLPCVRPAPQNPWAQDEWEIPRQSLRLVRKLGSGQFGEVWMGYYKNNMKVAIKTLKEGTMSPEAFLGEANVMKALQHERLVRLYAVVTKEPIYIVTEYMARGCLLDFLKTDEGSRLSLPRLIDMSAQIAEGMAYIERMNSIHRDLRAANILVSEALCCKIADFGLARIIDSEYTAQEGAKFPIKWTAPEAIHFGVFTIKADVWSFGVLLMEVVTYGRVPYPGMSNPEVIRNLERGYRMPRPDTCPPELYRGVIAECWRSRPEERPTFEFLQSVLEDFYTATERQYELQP
Sequence of Proto-oncogene tyrosine-protein kinase receptor Ret (Homo sapiens), P07949 [V804M] (P07949 whole entry V804M): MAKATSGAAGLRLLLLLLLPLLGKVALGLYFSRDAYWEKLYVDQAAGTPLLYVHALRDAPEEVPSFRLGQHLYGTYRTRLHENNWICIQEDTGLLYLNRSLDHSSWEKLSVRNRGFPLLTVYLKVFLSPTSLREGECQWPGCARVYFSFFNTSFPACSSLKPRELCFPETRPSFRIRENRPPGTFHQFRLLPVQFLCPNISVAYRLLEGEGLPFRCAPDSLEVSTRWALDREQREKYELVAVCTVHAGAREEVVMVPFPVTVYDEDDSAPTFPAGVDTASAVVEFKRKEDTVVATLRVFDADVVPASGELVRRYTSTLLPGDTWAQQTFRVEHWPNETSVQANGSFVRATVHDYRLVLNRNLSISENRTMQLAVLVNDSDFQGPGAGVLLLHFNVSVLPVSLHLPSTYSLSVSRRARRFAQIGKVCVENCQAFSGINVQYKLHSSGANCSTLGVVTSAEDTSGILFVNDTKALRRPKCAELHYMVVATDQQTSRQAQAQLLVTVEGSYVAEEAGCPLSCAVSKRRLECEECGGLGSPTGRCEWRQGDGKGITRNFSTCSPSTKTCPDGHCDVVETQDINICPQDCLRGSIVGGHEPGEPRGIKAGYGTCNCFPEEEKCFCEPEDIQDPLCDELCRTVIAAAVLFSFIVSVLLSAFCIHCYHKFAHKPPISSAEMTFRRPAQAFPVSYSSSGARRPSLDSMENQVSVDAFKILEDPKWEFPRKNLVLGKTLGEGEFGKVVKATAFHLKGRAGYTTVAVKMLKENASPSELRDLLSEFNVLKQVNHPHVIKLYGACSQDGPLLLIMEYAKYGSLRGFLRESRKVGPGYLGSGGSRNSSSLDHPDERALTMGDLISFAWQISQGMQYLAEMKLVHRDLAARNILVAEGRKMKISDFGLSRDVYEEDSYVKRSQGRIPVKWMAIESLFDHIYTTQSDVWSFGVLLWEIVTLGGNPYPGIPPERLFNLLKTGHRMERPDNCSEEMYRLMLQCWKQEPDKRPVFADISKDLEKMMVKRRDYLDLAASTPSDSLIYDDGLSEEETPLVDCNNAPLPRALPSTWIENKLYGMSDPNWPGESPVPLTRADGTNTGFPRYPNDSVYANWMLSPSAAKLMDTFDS
Sequence of Proto-oncogene tyrosine-protein kinase receptor Ret (Homo sapiens), P07949 [V804L] (P07949 whole entry V804L): as the sequence (P07949 whole entry V804M) above, with M804L counted along it
Sequence of Adenosine receptor A1 (Homo sapiens) (P30542 whole entry): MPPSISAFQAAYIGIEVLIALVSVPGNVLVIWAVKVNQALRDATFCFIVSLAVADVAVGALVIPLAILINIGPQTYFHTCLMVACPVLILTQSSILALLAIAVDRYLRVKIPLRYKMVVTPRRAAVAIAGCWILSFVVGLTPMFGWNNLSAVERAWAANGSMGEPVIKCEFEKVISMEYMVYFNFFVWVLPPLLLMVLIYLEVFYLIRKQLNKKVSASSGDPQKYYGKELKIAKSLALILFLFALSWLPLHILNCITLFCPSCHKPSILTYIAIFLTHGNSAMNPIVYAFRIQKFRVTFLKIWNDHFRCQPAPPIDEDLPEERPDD
Sequence of Proto-oncogene tyrosine-protein kinase receptor Ret (Homo sapiens), P07949 [M918T] (P07949 whole entry M918T): as the sequence (P07949 whole entry V804M) above, with M804V, M918T counted along it
Sequence of Proto-oncogene tyrosine-protein kinase receptor Ret (P07949 whole entry): as the sequence (P07949 whole entry V804M) above, with M804V counted along it
Sequence of RAC-alpha serine/threonine-protein kinase (P31749 whole entry): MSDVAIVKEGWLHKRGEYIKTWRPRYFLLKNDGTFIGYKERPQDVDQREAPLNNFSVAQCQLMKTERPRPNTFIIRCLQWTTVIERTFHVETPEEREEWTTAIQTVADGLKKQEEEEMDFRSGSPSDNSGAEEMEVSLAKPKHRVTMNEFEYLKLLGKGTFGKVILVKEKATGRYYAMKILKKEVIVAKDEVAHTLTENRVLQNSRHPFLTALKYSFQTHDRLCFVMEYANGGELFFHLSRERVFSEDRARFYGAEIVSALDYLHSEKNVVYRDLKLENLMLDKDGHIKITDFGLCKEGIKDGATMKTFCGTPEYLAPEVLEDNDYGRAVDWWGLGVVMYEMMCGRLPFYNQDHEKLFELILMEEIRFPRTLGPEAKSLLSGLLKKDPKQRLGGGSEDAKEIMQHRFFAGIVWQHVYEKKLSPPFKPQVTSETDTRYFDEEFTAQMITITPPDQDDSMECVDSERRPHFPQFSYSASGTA

## COc1cc(Nc2nc(C)cc(-c3cnn4nc(OC)ccc34)n2)cc(C(F)(F)F)c1
[1]
  % of control: 95%
[2]
  % of control: 98%
[3]
  % of control: 78%
[4]
  % of control: 100%

## CC[C@@H]1[C@H](F)C(=O)N[C@@H]1COc1nccc2cc(C(N)=O)c(OC)cc12 [ZIMLOVISERTIB]
[5]; at 0.01 µM
  % of inhibition: -1%
[5]; at 0.04 µM
  % of inhibition: 3.1%
[5]; at 0.2 µM
  % of inhibition: -5.7%
[5]; at 1 µM
  % of inhibition: -1%
[5]; at 5 µM
  % of inhibition: -1.4%

## Cn1cc(-n2cnc3c(NCc4nc5cc(Cl)c(Cl)cc5[nH]4)nc(N4CCOCC4)nc32)cn1
[6]
  % of inhibition: 0.245%

## Cc1cc(F)c(C(=O)Nc2cccc(-c3nncn3C(C)C)n2)cc1-n1cnc(C2CC2)c1
[7]
  % of control: 100%
[8]
  % of control: 100%

## CC(=O)c1cc(-c2ccccc2OCC2CC2)c2ncccn12
[9]
  % of control: 35%

## COCC(=O)NC/C=C/c1ccc2ncnc(Nc3ccc(Oc4ccc(C)nc4)c(C)c3)c2c1 [CP-724714]
[10]
  % of control: 62%

## Cc1ccc(-c2ccc3c(ccc4sc5c(c43)NC[C@@H](C)NC5=O)n2)cn1
[11]
  % of inhibition: 68%

## C=CC(=O)Nc1cc(-n2c(=O)ccc3cnc4ccc(-c5ccc(NS(C)(=O)=O)cc5)cc4c32)ccc1C
[12]; at 1 µM
  % of control: 100%
[12]; at 10 µM
  % of control: 100%

## CN(C)CCOc1ccc(-c2nc(-c3ccncc3)c(-c3ccc4c(c3)CC/C4=N\O)[nH]2)cc1
[13]
  % of control: 45%

## CNC(=O)Nc1ccc(-c2nc(N3CC4CCC(C3)O4)c3cnn(C4CCC5(CC4)OCCO5)c3n2)cc1
[14]
  % of control: 92%

## C=CC(=O)Nc1ccc(C(=O)Nc2[nH]nc3c2CN(C(=O)N[C@H](CN(C)C)c2ccccc2)C3(C)C)cc1
[15]
  % of engagement: 13%
